Assay results from ChEMBL document CHEMBL5465560, “Selectivity Literature for EUbOPEN Chemogenomic Library” (2024).

Key:
[1] = target: Macrophage colony-stimulating factor 1 receptor (Homo sapiens) (UniProt P07333); experiment: Selectivity interaction (Kinase panel (Z-LYTE Assay)) EUB0001632a CSF1R; conditions: at 10 µM
[2] = target: T1, N-lysine methyltransferase KMT5A (Homo sapiens) (UniProt Q9NQR1); experiment: Selectivity interaction (Methyltransferase screen (radiometric assays, panel of 8 PRMTs, 21 protein lysine methyltransferases, 3 DNA methyltransferases, and one RNA methyltransferase)) EUB0000272b SETD8
T1 sequence (whole entry): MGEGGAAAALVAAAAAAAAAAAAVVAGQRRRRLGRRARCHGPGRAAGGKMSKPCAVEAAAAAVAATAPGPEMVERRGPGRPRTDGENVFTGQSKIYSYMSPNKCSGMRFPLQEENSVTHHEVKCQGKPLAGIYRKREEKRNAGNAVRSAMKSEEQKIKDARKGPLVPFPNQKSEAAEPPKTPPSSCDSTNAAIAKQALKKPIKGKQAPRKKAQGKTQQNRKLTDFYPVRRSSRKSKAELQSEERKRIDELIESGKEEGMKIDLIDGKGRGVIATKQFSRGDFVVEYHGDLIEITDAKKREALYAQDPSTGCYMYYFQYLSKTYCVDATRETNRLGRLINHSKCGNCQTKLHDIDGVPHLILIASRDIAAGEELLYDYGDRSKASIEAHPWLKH

[3] = target: Mitogen-activated protein kinase 6 (Homo sapiens) (UniProt Q16659); experiment: Selectivity interaction (KinomeScan (DiscoverX)) EUB0000666a MAPK6; conditions: at 10 µM
[4] = target: Dual specificity protein kinase CLK1 (Homo sapiens, UniProt P49759); experiment: Selectivity interaction (Kinase panel (Invitrogen)) EUB0000639a CLK1; conditions: at 200 nM
[5] = target: T2, Ephrin type-B receptor 6 (Homo sapiens) (UniProt O15197); experiment: Selectivity interaction (KinomeScan (DiscoverX)) EUB0000595a EPHB6; conditions: at 10 µM
T2 sequence (whole entry): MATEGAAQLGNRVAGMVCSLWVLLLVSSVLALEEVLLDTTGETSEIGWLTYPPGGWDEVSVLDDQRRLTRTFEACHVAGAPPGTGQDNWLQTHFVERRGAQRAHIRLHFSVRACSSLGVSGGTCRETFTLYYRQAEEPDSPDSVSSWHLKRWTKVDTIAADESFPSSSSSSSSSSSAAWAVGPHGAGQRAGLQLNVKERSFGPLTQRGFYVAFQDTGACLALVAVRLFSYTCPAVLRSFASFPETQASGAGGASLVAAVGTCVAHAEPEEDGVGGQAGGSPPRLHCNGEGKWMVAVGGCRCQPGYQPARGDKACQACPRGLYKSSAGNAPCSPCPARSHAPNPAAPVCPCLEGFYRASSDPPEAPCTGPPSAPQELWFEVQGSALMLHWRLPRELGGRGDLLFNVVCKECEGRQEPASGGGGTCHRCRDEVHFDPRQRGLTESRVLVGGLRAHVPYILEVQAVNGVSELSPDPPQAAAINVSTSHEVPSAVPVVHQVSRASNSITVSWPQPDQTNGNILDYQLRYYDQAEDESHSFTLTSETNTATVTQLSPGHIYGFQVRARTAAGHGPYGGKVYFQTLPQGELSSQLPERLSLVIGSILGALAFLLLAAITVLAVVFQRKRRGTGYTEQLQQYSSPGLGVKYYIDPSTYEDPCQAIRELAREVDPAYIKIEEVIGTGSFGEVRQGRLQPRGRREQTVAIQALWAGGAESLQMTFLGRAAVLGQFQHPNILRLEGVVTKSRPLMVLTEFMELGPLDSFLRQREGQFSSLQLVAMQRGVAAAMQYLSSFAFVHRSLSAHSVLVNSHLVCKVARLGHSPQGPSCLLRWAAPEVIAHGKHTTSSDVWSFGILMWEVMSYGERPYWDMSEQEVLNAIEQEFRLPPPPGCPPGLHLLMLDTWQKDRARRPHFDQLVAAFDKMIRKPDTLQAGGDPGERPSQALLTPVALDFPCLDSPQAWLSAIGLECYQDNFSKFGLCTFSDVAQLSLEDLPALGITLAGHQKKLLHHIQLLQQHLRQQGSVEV

[6] = target: T3, Serine/threonine-protein kinase BRSK2 (Homo sapiens) (UniProt Q8IWQ3); experiment: Selectivity interaction (Kinase screening (Nanosyn)) EUB0000604a BRSK2
T3 sequence (whole entry): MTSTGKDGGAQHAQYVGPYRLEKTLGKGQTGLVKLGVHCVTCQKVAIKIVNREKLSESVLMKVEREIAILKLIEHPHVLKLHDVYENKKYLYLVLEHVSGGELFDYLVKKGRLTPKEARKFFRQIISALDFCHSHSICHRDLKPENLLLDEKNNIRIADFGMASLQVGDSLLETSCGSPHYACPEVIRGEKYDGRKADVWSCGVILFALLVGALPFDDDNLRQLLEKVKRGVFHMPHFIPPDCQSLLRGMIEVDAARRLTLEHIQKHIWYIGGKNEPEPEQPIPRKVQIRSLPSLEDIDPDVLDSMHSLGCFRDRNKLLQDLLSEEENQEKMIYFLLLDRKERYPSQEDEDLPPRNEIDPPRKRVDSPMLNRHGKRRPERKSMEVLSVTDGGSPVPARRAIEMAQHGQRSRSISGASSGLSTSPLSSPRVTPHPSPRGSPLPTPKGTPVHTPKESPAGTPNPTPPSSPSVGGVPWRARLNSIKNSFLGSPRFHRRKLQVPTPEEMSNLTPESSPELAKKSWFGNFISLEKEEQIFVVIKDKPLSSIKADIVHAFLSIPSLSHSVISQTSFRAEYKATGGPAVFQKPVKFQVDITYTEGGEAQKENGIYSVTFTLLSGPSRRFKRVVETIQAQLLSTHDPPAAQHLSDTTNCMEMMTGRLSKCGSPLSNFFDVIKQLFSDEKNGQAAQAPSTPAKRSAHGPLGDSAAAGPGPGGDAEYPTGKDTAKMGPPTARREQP

[7] = target: Serine/threonine-protein kinase 32B (Homo sapiens) (UniProt Q9NY57); conditions: at 10 µM
Chain of Serine/threonine-protein kinase 32B (Homo sapiens) (Q9NY57 whole entry): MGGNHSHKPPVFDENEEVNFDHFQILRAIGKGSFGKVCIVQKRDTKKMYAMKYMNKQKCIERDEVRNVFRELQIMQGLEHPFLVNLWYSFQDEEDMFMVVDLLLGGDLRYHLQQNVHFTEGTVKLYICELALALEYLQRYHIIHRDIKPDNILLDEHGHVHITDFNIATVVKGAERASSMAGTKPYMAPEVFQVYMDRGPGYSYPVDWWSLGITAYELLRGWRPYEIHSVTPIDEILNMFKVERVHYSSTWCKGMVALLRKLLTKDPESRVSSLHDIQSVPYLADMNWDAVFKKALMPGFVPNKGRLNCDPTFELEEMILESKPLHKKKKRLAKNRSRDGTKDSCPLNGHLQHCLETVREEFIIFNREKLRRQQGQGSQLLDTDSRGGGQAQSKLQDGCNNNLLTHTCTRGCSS

Chain of Mitogen-activated protein kinase 6 (Homo sapiens) (Q16659 whole entry): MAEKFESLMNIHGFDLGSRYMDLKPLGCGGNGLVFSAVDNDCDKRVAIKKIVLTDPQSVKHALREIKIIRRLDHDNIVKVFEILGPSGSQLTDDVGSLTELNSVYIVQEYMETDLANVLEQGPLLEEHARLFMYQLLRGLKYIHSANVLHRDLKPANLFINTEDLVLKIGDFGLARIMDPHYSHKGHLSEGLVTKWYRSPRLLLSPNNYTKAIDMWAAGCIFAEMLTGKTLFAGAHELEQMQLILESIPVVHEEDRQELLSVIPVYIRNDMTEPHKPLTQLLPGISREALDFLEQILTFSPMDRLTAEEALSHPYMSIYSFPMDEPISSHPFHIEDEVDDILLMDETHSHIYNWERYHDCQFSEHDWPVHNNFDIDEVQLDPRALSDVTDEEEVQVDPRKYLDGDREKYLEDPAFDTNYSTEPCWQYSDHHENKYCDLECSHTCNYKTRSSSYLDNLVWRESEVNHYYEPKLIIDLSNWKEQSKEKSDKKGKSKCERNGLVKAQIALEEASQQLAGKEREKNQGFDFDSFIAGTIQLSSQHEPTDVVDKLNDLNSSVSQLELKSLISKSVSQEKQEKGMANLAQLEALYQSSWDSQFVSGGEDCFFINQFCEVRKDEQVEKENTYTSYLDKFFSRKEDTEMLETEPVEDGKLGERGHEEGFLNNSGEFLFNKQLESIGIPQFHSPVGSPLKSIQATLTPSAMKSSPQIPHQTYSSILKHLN
Chain of Macrophage colony-stimulating factor 1 receptor (Homo sapiens) (P07333 whole entry): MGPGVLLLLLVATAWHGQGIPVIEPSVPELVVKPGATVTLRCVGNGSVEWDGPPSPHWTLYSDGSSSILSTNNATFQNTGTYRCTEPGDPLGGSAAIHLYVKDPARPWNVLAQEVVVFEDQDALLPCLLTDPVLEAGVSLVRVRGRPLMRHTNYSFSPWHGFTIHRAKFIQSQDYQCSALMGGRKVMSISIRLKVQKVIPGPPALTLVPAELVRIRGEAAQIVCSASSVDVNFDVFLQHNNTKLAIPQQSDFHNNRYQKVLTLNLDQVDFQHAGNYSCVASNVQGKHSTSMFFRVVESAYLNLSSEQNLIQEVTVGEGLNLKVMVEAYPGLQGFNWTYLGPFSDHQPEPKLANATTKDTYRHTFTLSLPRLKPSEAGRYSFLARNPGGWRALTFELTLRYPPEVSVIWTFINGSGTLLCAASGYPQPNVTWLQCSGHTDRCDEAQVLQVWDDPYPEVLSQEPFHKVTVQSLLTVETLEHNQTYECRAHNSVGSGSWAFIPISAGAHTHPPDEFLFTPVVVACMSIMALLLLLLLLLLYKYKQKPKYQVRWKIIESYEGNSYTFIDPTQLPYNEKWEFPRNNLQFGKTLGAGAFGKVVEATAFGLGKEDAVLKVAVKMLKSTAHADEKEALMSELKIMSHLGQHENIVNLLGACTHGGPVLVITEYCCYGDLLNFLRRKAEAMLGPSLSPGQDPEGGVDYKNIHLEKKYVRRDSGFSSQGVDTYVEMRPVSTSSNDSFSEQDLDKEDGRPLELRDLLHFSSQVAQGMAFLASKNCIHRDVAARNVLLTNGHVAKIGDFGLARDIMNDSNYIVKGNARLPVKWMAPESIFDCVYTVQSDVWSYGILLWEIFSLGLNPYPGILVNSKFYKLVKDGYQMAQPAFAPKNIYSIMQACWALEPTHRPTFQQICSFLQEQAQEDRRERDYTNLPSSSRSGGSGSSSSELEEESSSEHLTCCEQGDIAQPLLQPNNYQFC
Chain of Dual specificity protein kinase CLK1 (P49759 whole entry, looked up): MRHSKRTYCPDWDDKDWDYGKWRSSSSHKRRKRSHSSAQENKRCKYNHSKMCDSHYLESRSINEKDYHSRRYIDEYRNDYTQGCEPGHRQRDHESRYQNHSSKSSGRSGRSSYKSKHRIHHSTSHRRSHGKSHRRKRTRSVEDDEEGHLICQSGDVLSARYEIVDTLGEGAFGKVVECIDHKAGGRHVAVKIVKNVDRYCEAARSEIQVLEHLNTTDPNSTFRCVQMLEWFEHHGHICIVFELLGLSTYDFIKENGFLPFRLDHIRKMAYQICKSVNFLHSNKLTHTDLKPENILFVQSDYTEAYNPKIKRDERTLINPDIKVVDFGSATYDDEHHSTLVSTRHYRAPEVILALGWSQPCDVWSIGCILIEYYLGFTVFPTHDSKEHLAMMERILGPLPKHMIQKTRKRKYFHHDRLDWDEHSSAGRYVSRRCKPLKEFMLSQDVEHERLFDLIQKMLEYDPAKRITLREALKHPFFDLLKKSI

Which % of control [1] does the source give for `Cn1cc(-n2cnc3c(NCc4nc5cc(Cl)c(Cl)cc5[nH]4)nc(N4CCOCC4)nc32)cn1` here?
The % of control was 20%.

How did the % of activity ([2]; at 1 µM) turn out when `Cc1cc(C)cc([C@H]2c3cc(C)ccc3NC(=O)CN2C(=O)c2ccc(Br)s2)c1` was run?
Its % of activity is 98%.

What about the % of activity ([2]; at 10 µM) of the same molecule?
Its % of activity is 102%.

Which % of control [3] does the source give for `O=C(NOC[C@H](O)CO)c1ccc(F)c(F)c1Nc1ccc(I)cc1F` here?
The % of control was 83%.

For `CC[C@@H]1[C@H](F)C(=O)N[C@@H]1COc1nccc2cc(C(N)=O)c(OC)cc12` [ZIMLOVISERTIB], which % of inhibition [4] is on record?
The % of inhibition was 34.5%.

Which % of control [5] does the source give for `COCC(=O)NC/C=C/c1ccc2ncnc(Nc3ccc(Oc4ccc(C)nc4)c(C)c3)c2c1` [CP-724714] here?
Its % of control is 74%.

Which % of inhibition [6] does the source give for `Cc1cnc(Nc2ccc(F)cc2Cl)nc1-c1c[nH]c(C(=O)N[C@H](CO)c2cccc(Cl)c2)c1` here?
The % of inhibition was 2%.

With `Cc1cc([C@@H](C)Nc2ccccc2C(=O)O)c2nc(N3CCOCC3)cc(=O)n2c1` [AZD-6482] as the molecule, how does the % of control [7] read?
The % of control was 71%.
